Source: patent US11992517B2, “Compositions and methods for promoting the mineralization of biological tissue” (NEW YORK SOCIETY FOR THE RUPTURED AND CRIPPLED MAINTAINING …, priority 2013, dated 2024)

Columns and labels:
ANKH = test: RT-PCR of ANK after IL-1β treatment; type: cell-based, bovine; settings: IL-1β 0.01 and 2 ng/ml; naïve cells and TNAP-infected BNP cells; day 3; FIG. 23
Method: (§1) Cells from Example 2 were grown in mineralization medium in the presence or absence of a low dose of […] (0.01 ng/ml) or a high dose (2 ng/ml) (R&D Systems). Cells were analyzed by Alizarin Red staining at 7 and 10 days as previously described. RT-PCR analysis of ANK and ENPP was also performed as previously described, using primers specific for ANKH and ENPP1.

ENPP1 = test: RT-PCR of ENPP after IL-1β treatment; type: cell-based, bovine; settings: IL-1β 0.01 and 2 ng/ml; naïve cells and TNAP-infected BNP cells; day 3; FIG. 23
Method: as §1

BNP cells = test: Effect of IL-1β on mineralization, Alizarin Red staining; type: cell-based, bovine; settings: IL-1β 0.01 and 2 ng/ml, 7 and 10 days
Method: as §1

bovine NP cells = test: Effect of TNF-α on mineralization, Alizarin Red and von Kossa staining; type: cell-based
Method: The cells from Example 2 (TNAP infected and naïve) were grown in high density cultures in a medium comprising DMEM high glucose (4.5 g/L) plus 1% PenStrep, and 10% FBS, and 50 μ/ml ascorbic acid, and 5 mM of β-glycerophosphate (mineralization medium). Some cells were also stimulated with 10 ng/mL of hfTNF-α.
The cells were stained with Alizarin Red and von Kossa stain after 7, 14, and 21 days.

Row | Substance | ANK transcripts (ANKH) | ENPP transcripts (ENPP1) | Alizarin Red staining of NP cells transduced with LacZ (BNP cells) | calcium staining with Alizarin Red of TNAP-infected BNP cell cultures (BNP cells; mineralization medium, FIGS. 21, 22) | mineralization of NP cells stimulated with TNF-α only (bovine NP cells; 10 ng/mL TNF-α, cells without TNAP) | staining of TNAP infected cells stimulated with TNF-α (bovine NP cells; 10 ng/mL TNF-α, versus unstimulated TNAP infected cells, FIG. 10) | more Alizarin Red staining than TNAP alone (bovine NP cells; TNAP overexpressing cells stimulated with TNF-α, average over three weeks, FIG. 11) [%]
1 | IL-1β: interleukin 1β (R&D Systems) added at 0.01 or 2 ng/ml | dose-dependent decrease | dose-dependent decrease | no observable change | dose-dependent increase |  |  | 
2 | TNF-α |  |  |  |  | did not show mineralization | darker | 45
